For 1 molecule, IC50, inhibition and Activity results are on record in ChEMBL document CHEMBL5506003, “Design and biological evaluation of dual tubulin/HDAC inhibitors based on millepachine for treatment of prostate cancer” (Eur J Med Chem, 2024).

Activity calls are given as the source filed them. The rule behind the calls is not given here.

The test system of one experiment is U-251. Kind of experiment: Cytotoxicity against human U-251 cells incubated for 72 hrs by MTT assay. The note with it: U-251, 72 h. (In general: Tetrazolium assays rely on reduction of a dye to a coloured formazan, in cell work by metabolically active cells.)
Experiment [1] has as its target T1, Protein deacetylase HDAC6 (Homo sapiens, UniProt Q9UBN7).
T1 sequence (Q9UBN7 whole entry): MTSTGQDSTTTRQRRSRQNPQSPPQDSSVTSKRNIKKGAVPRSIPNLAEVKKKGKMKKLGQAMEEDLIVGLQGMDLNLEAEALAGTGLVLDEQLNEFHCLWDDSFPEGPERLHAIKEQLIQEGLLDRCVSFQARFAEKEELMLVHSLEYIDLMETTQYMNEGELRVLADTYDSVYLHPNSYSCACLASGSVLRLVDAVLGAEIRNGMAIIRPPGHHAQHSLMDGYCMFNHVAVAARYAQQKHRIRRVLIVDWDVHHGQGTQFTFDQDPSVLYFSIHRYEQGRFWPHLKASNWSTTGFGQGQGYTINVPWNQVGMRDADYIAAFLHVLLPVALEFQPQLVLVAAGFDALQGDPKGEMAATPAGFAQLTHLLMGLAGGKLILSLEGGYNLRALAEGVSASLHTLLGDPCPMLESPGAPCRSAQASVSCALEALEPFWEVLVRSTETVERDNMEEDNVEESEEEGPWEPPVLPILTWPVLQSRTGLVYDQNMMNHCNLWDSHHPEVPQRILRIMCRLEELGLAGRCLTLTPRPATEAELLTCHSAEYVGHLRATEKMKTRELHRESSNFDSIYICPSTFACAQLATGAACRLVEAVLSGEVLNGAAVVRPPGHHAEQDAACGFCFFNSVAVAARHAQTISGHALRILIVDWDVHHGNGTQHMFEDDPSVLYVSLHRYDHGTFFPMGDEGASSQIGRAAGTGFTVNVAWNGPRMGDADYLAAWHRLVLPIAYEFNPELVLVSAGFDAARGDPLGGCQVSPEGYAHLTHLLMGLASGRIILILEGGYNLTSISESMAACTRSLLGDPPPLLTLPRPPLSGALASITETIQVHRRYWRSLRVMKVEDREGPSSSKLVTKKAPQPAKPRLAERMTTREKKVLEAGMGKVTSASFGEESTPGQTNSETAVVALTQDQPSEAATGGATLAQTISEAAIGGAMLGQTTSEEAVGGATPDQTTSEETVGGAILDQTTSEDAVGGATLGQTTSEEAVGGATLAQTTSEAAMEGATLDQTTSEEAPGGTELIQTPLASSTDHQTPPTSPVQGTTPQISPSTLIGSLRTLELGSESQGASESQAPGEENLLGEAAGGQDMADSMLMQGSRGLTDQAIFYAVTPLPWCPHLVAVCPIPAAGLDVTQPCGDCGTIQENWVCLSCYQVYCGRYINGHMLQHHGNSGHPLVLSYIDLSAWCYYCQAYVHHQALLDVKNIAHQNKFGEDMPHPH
Kind of experiment: Inhibition of HDAC6 in human HeLa nuclear extracts incubated for 30 mins by fluorescence based assay. It counts as cell-free.

A further experiment concerns the target T2, Histone deacetylase 7 (Homo sapiens, UniProt Q8WUI4).
T2 sequence (Q8WUI4 whole entry): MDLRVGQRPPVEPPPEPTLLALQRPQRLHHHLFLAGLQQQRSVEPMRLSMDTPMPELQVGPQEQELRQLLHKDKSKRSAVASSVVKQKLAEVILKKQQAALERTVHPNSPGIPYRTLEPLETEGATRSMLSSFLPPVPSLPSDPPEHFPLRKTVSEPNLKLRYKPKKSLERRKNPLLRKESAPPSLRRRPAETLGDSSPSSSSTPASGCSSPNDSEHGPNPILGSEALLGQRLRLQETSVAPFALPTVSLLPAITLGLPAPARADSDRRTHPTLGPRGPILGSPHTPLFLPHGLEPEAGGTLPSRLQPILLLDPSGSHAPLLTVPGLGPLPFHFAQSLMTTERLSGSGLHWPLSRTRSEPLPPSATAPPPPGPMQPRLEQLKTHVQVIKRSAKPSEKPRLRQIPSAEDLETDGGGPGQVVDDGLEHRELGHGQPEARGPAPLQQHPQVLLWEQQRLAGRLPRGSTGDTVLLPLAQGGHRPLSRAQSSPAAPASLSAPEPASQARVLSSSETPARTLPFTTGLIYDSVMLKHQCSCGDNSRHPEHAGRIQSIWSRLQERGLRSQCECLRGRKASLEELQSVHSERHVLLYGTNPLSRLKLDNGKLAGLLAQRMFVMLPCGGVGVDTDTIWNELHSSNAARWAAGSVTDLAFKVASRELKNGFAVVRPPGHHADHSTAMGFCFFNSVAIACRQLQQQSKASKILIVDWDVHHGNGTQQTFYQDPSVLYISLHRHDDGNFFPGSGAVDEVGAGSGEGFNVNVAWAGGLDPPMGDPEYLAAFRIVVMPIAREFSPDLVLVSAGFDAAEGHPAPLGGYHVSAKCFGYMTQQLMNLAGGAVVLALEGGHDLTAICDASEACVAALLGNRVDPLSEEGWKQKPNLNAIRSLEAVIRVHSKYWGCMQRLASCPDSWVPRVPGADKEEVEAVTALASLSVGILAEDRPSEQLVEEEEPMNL
Kind of experiment: Inhibition of HDAC7 in human HeLa nuclear extracts incubated for 30 mins by fluorescence based assay. It counts as cell-free.

Experiment [2] addresses T3, Protein deacetylase HDAC6 (Homo sapiens) (UniProt Q9UBN7).
T3 sequence (whole entry): T1 sequence (Q9UBN7 whole entry)
Kind of experiment: Inhibition of HDAC6 in human PC-3 cells assessed as increase in acetylated alpha-tubulin level incubated for 24 hrs by Western blotting assay. It counts as cell-based. The conditions noted are these: dose 0.08-0.32 µM. (Immunoblotting shows a protein as a band on a membrane.)

For a further experiment, the target named is Histone deacetylase 2 (Homo sapiens, UniProt Q92769). Kind of experiment: Inhibition of HDAC2 in human PC-3 cells assessed as increase in acetylated Histone-H3 level incubated for 24 hrs by Western blotting assay. It counts as cell-based. The conditions noted are these: dose 0.08-0.32 µM.
Experiment [3] deals with Histone deacetylase 3 (Homo sapiens) (UniProt O15379). Kind of experiment: Inhibition of HDAC3 in human PC-3 cells assessed as increase in acetylated Histone-H3 level incubated for 24 hrs by Western blotting assay. It counts as cell-based. The conditions noted are these: dose 0.08-0.32 µM.
Experiment [4] concerns PC-3. Kind of experiment: Induction of cell cycle arrest in human PC-3 cells assessed as G1 phase cells at 0.16 uM incubated for 24 hrs by PI staining based flow cytometry analysis (reference value: 56.17%). It counts as functional. (In general: A flow cytometer gives signals particle by particle.)
Experiment [5] concerns PC-3. Kind of experiment: Induction of cell cycle arrest in human PC-3 cells assessed as decrease in phosphorylated […] Tyr15 by Western blotting analysis. It counts as functional, cell-based. The note with it: dose 0.08-0.32 µM.
In experiment [6] the test system is PC-3. Kind of experiment: Induction of cell cycle arrest in human PC-3 cells assessed as increase in cyclin B1 level at 0.08 to 0.32 uM by Western blotting analysis. It counts as functional, cell-based. The note with it: dose 0.08-0.32 µM.
Experiment [7] has as its system PC-3. Kind of experiment: Induction of apoptosis in human PC-3 cells assessed as necrotic cells at 0.08 uM incubated for 24 hrs by Annexin V-FITC and PI staining based flow cytometry (reference value: 0.13%). It counts as functional.
Experiment [8] deals with PC-3. Kind of experiment: Induction of apoptosis in human PC-3 cells assessed as upregulation of cleaved caspase-3 expression at 0.08 to 0.32 uM by Western blotting analysis. It counts as functional, cell-based. The conditions noted are these: dose 0.08-0.32 µM.
In experiment [9] the test system is PC-3. Kind of experiment: Induction of mitochondrial membrane potential loss in human PC-3 cells assessed as decrease in JC-1 aggregate level by measuring red fluorescence intensity at 0.16 uM incubated for 24 hrs by JC-1 staining based flow cytometry analysis (reference value: 93.5%). It counts as functional. More on the design: scale not given: the % may be the effect or the level left.

In the next experiment the test system is A549. Kind of experiment: Inhibition of cell migration in human A549 cells incubated for 24 hrs by scratch wound healing method. It counts as functional, cell-based. The note with it: dose 0.4-1.6 µM.

Chain of Histone deacetylase 2 (Q92769 whole entry): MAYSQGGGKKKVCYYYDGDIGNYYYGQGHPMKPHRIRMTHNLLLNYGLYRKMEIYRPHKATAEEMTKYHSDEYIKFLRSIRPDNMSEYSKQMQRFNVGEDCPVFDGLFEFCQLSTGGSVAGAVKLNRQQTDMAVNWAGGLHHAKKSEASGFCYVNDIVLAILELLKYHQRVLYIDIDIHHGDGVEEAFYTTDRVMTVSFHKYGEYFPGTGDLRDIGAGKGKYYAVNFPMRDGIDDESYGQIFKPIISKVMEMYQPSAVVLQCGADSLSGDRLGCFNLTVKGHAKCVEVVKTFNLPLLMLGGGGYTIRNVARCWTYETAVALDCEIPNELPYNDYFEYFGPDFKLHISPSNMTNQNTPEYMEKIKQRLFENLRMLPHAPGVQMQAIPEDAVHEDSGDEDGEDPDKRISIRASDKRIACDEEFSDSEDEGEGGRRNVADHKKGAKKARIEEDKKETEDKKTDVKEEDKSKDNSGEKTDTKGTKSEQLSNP
Chain of Histone deacetylase 3 (Homo sapiens) (O15379 whole entry): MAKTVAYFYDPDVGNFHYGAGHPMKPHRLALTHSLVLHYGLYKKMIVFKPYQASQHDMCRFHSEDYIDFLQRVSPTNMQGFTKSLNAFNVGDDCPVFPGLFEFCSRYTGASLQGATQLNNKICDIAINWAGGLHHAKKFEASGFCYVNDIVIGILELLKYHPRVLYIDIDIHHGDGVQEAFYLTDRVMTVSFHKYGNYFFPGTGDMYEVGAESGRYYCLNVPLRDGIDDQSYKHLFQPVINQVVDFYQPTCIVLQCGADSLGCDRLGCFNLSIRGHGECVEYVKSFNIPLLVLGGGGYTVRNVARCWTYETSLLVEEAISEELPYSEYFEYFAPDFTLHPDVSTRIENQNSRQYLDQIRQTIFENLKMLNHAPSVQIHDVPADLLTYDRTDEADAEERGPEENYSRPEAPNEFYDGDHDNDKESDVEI

Regarding `COc1ccc(/C=C/C(=O)c2ccc(OC)c3c2OC(C)(C)C=C3)cc1NCC(=O)NO`, the IC50 with U-251 was 150 nM; in experiment [1], 620 nM; against Histone deacetylase 7, 2340 nM. Moreover, the inhibition entry (in experiment [2]; on Histone deacetylase 2; in experiment [3]; in the experiment with A549) was “Dose-Dependent Effect” throughout. For the same molecule, the Activity in the experiment on PC-3 [4] was found to be 18.7%; in the experiment on PC-3 [7] it was 0.041%; in the experiment on PC-3 [9], 77.9%. In addition, the outcome in the experiment on PC-3 [5], with PC-3 [6] and in the experiment with PC-3 [8] was Active.

The term IC50 denotes the concentration at which inhibition is half-maximal.
